Source: patent publication US4379150A, “Dibenz[b,f][1,4]oxazepine derivatives, process for preparing the same, and pharmaceutical compositions comprising the same” (Chugai Seiyaku Kabushiki Kaisha, priority 1980, dated 1983)
Structures can show the parent of a compound that is named as a salt.

Tested on: isolated, donor-perfused rat hearts
Assay: inhibition of coronary vasoconstriction induced by acetylcholine 0.3 μg in isolated, donor-perfused rat hearts
Conditions: administered in the artery; for inhibition at 0.03 mg: 30 μg
Experimental: The effect of the compounds of the present invention to inhibit coronary vasoconstriction was studied. That vasoconstriction was induced by acetylcholine 0.3 μg in isolated, donor-perfused rat hearts (K. Sakai, Brit. J. Pharmacol., 68, 625-638, 1980), and determined by measuring the arterial perfusion pressure with a pressure transducer (Nihon Kohden MPU--0.5). The compounds of the present invention were administered in the artery in an amount between 30 and 60 μg.

| Compound | inhibition at 0.03 mg [%] | inhibition at 0.06 mg (60 μg) [%] |
| --- | --- | --- |
| CCOC(=O)c1ccc2c(c1)N(CCN(C)C)C(=O)c1cc(C(C)C)cc(C(C)C)c1O2 [Comp. of Ex. 1, 2,4-diisopropyl-10[2-(dimethylamino)ethyl]-8-ethoxycarbonyl-dibenz[b,f][1,4] oxazepine-11(10H)-one] | ≥ 41 |  |
| CC(C)c1cc2c(c(C(C)C)c1)Oc1ccccc1N(CCN(C)C)C2=O [Comp. of Ex. 2] | 31 to 40 |  |
| CC(C)c1cc2c(c(C(C)C)c1)Oc1ccccc1N(CCCN(C)C)C2=O [Comp. of Ex. 3] | ≥ 41 |  |
| COc1ccc2c(c1)N(CCN(C)C)C(=O)c1cc(C(C)C)cc(C(C)C)c1O2 [Comp. of Ex. 4] |  | 20 to 30 |
| COc1ccc2c(c1)N(CCCN(C)C)C(=O)c1cc(C(C)C)cc(C(C)C)c1O2 [Comp. of Ex. 5] | 20 to 30 |  |
| CCOC(=O)c1ccc2c(c1)N(CCN(C)C)C(=O)c1cc(C(C)(C)CC)ccc1O2 [Comp. of Ex. 8] | 31 to 40 |  |
| CCOC(=O)c1ccc2c(c1)N(CCCN(C)C)C(=O)c1cc(C(C)(C)CC)ccc1O2 [Comp. of Ex. 9] | ≥ 41 |  |
| CCC(C)(C)c1ccc2c(c1)C(=O)N(CCCN(C)C)c1ccccc1O2 [Comp. of Ex. 10] | 20 to 30 |  |
| CCOC(=O)c1ccc2c(c1)N(CCCN(C)C)C(=O)c1cc(C(C)C)cc(C(C)C)c1O2 [Comp. of Ex. 14] | 31 to 40 |  |
| CC(C)c1cc2c(c(C(C)C)c1)Oc1ccc(C(=O)O)cc1N(CCN(C)C)C2=O [Comp. of Ex. 15, 2,4-diisopropyl-10-[2-(dimethylamino)ethyl]-8-carboxy-dibenz[b,f][1,4]-oxazepine-11(10H)-one hydrochloride] | 20 to 30 |  |
| CC(C)c1cc2c(c(C(C)C)c1)Oc1ccc(C(N)=O)cc1N(CCN(C)C)C2=O [Comp. of Ex. 17, 2,4-diisopropyl-10-[2-(dimethylamino)ethyl]-8-carbamoyl-dibenz[b,f][1,4]oxazepine-11(10H)-one] | 20 to 30 |  |
